Values of other authors as cited in PMC6595297 (British Journal of Clinical Pharmacology, 2019).

Test system: human P‐gp transport function
Settings: cited from earlier work

| SMILES | Inhibition of P‐gp (classification) |
| --- | --- |
| OC(Cn1cncn1)(Cn1cncn1)c1ccc(F)cc1F [fluconazole] | devoid of P‐gp inhibitory effect |
| CCC(C)n1ncn(-c2ccc(N3CCN(c4ccc(OCC5COC(Cn6cncn6)(c6ccc(Cl)cc6Cl)O5)cc4)CC3)cc2)c1=O (centres unmarked) [itraconazole] | strong dual inhibitor of CYP3A and P‐gp |
